According to the Kinase Knowledgebase extract (Sharma et al. 2016):

Molecular target: EGFR (UniProt P00533)
Sequence (P00533 whole entry, looked up): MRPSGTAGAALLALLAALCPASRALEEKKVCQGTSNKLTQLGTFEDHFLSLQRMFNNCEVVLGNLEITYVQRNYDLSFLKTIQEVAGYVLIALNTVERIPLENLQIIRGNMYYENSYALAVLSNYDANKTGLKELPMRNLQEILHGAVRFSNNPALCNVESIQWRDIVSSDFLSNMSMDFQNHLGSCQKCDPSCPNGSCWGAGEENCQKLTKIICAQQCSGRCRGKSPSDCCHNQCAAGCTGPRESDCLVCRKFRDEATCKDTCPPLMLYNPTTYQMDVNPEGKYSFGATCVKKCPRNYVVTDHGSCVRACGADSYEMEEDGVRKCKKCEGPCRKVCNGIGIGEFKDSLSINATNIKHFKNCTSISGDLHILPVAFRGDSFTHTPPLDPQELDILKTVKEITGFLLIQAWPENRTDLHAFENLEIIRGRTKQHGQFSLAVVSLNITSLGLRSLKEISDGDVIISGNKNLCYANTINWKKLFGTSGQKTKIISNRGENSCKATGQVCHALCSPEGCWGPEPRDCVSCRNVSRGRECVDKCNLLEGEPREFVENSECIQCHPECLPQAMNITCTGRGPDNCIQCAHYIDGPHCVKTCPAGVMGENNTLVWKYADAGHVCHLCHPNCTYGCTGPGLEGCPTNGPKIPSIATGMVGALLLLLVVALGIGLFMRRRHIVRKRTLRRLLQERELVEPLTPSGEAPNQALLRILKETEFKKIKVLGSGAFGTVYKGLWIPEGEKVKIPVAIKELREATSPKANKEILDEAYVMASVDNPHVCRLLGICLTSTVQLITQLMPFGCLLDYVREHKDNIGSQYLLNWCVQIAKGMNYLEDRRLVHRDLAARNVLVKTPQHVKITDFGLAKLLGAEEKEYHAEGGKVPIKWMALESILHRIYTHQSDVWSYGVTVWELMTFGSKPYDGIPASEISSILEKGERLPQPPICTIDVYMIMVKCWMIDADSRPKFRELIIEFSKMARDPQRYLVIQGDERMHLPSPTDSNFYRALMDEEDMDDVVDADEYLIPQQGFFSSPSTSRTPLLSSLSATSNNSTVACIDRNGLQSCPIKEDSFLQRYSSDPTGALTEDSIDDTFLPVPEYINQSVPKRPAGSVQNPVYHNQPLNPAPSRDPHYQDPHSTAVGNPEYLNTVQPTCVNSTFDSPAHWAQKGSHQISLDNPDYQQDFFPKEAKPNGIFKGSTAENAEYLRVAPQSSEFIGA

| SMILES | IC50 |
| --- | --- |
| O=C(Nc1ccc(Br)cc1)Nc1ncnc2nn3ccccc3c12 | > 10 µM |
| O=C(Nc1ccc(C(F)(F)F)cc1)Nc1ncnc2nn3ccccc3c12 | > 10 µM |
| c1ccc2c(CNNc3ncnc4nn5ccccc5c34)c[nH]c2c1 | 1 to 10 µM |
| O=C(Nc1cccc([N+](=O)[O-])c1)Nc1ncnc2nn3ccccc3c12 | > 10 µM |
| Nc1ncnc2nn3ccccc3c12 | > 10 µM |
| c1ccc(Cc2nc3ccc(Nc4ncnc5nn6ccccc6c45)cc3[nH]2)cc1 | 1 to 10 µM |
| N#Cc1cccc(NC(=O)Nc2ncnc3nn4ccccc4c23)c1 | > 10 µM |
| Clc1cc(Nc2ncnc3nn4ccccc4c23)ccc1OCc1ccccc1 | < 0.1 µM |
| O=C(Nc1cccc(C(F)(F)F)c1)Nc1ncnc2nn3ccccc3c12 | > 10 µM |
| O=C(Nc1ccc(F)cc1)Nc1ncnc2nn3ccccc3c12 | > 10 µM |
